Assay: gradient 5% acetonitrile 3 min, to 50% in 2 min, to 85% in 15 min, held 3 min, 100 µL/min
Details: column: Zorbax Extend-C18 2.1 x 50 mm; eluents: water / acetonitrile, 0.1% formic acid
In short: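 Using water and acetonitrile that each contained 0.1% formic acid, mixtures of ~100 pure standards were separated at 100 μL/min on a Zorbax Extend-C18 column (2.1 × 50 mm, 1.8 μm). The HPLC fed a quadrupole time-of-flight mass spectrometer working in positive and negative ionization mode, with dead and dwell volumes of 40 μL and 900 μL. Data were acquired over 3 months. Retention time was read from computationally picked adduct peaks after manual inspection of each.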

Compared with `O=C(Cc1csc(-c2c(Cl)cccc2Cl)n1)NCCc1c[nH]c2ccccc12`, `O=C(NCCc1nc(-c2ccccc2)cs1)C1CC(=O)N(c2n[nH]c3ccccc23)C1` (centres undefined) is lower in RP-LC retention time: 925 s for the first, 740 s for the second.

First: CCc1nc(-c2csc(S(=O)(=O)N3CCC(C(=O)Nc4ccc(C)c(Cl)c4)CC3)c2)no1
Second: CCOC(=O)c1c(S(=O)(=O)N2CCC(C(=O)Nc3ccc(C)cc3)CC2)c(C)n(C)c1C
The RP-LC retention time of the first is higher: 994 s for the first, 886 s for the second.

First: CCCn1nc(CNC(=O)c2cccs2)c2ccccc21
Second: O=C(NCc1noc(Cc2ccccc2)n1)c1ccccc1
The RP-LC retention time of the first is lower: 785 s for the first, 798 s for the second.

First: O=C(CCS(=O)(=O)c1ccccc1)Nc1nc(-c2cc(Cl)sc2Cl)cs1
Second: Cc1cccc(C(=O)Nc2nc(-c3ccc4c(c3)N(C)C(=O)C(C)O4)cs2)c1 (centres undefined)
The RP-LC retention time of the first is higher: 1060 s for the first, 1050 s for the second.

Compared with `CC1CCCN(S(=O)(=O)c2ccc(-c3nnc(C4CCCC4)o3)o2)C1` (centres undefined), `Cc1ccc(F)c(NS(=O)(=O)c2ccc(-c3nnc(C4CCC4)o3)o2)c1` is lower in RP-LC retention time: 1080 s for the first, 924 s for the second.

Compared with `O=C(NC1CC1)[C@@H]1C[C@H](Oc2ccccc2)CN1C(=O)c1cc2ccccc2[nH]1`, `O=C(N[C@H]1C[C@@H]2C[C@H]1N(C(=O)c1ccccc1Cl)C2)c1cccnc1` is lower in RP-LC retention time: 847 s for the first, 602 s for the second.

Compared with `COc1cccc(N2CCN(c3ccnc(SCC(=O)Nc4c(C)cc(C)cc4C)n3)CC2)c1`, `Cc1cc(OCC(=O)Nc2ccc(C(C)C)cc2)nc(N2CCN(c3ccccc3)CC2)n1` is higher in RP-LC retention time: 861 s for the first, 981 s for the second.

First: COc1cn(CC(=O)Nc2ccc(F)cc2F)c(CO)cc1=O
Second: CCn1cc(C(=O)Nc2ccc(Br)cc2F)c(=O)c2ccc(C)nc21
The RP-LC retention time of the first is lower: 565 s for the first, 1290 s for the second.

Going from `CCCCn1nc2ccc(S(=O)(=O)N3CCC(C)CC3)cn2c1=O` to `Cc1ccc(S(=O)(=O)N2CCC(CCC(=O)NCc3ccccc3)CC2)cc1`, the RP-LC retention time falls from 970 s to 873 s.

Compared with `Cn1nc2c(c1NC(=O)C1CCCN1S(=O)(=O)c1ccc(F)cc1)CCC2` (centres undefined), `CCOC(=O)c1cc(S(=O)(=O)N2CCCC2C(=O)NCc2cccs2)cn1C` (centres undefined) is higher in RP-LC retention time: 700 s for the first, 823 s for the second.

Compared with `O=C(c1n[nH]c2ccccc12)N1CCC(c2noc(C3CC3)n2)C1` (centres undefined), `O=C(CCC1CCCC1)N1CCC(c2noc(-c3ccc(Cl)cc3)n2)CC1` is higher in RP-LC retention time: 720 s for the first, 1320 s for the second.

Compared with `CCOc1ccc(-c2cc(=O)n(CCCC(=O)Nc3ccc4sc(C)nc4c3)cn2)cc1`, `CCCCOc1ccc(NC(=O)c2cc(=O)c3ccc(C)cc3o2)c2cccnc12` is higher in RP-LC retention time: 721 s for the first, 722 s for the second.

First: CCOC(=O)CNC(=O)N(C)Cc1nc2cc(C(=O)N(C)C)ccc2n1C
Second: Cc1ncc([N+](=O)[O-])n1CCOC(=O)c1ccc(F)cc1
The RP-LC retention time of the first is lower: 566 s for the first, 732 s for the second.

First: COc1cccc(C(=O)Nc2nnc(C3CC(=O)N(c4ccccc4)C3)o2)c1 (centres undefined)
Second: CN1C(=O)CCc2cc(NC(=O)c3ccncc3)ccc21
The RP-LC retention time of the first is higher: 690 s for the first, 579 s for the second.

Going from `CN1c2ccccc2C(=O)N2CCc3c([nH]c4ccccc34)C21` (centres undefined) to `CCSc1ccccc1C(=O)NCCS(=O)(=O)N1CCc2ccccc2C1`, the RP-LC retention time falls from 890 s to 862 s.

Going from `CCN(CC)C(=O)c1cc(=O)[nH]c2c(C)cccc12` to `CCCN1C(=O)COc2ccc(-c3noc(-c4ccccc4C)n3)cc21`, the RP-LC retention time rises from 657 s to 1290 s.

Compared with `Cc1ccc(N2C(=O)N(Cc3ccc(F)cc3)S(=O)(=O)c3cccnc32)cc1`, `CCOc1cc(=O)c(C(=O)N2CCN(c3ncccn3)CC2)nn1-c1ccc(C)cc1` is lower in RP-LC retention time: 1080 s for the first, 751 s for the second.

First: CCC(=O)N1CCCN(C2=NS(=O)(=O)C(c3ccc(Cl)cc3)=C2C)CC1
Second: Cc1ccc(-n2nc(N3CCCN(C(=O)c4ccc(Br)o4)CC3)ccc2=O)cc1C
The RP-LC retention time of the first is lower: 661 s for the first, 824 s for the second.

Going from `CCOC(=O)c1cnc2nc(C)ccc2c1Nc1ccc(F)c(Cl)c1` to `CCN1C(=O)c2cccnc2Sc2cc(NC(=O)c3ccc(C)c(F)c3)ccc21`, the RP-LC retention time rises from 764 s to 896 s.

Going from `Cn1cc(CN2C[C@@H](COc3cccnc3)[C@H](c3ccccn3)C2)cn1` to `CN1CCN(c2ccc(CNC(=O)C3CCCN(c4nccnc4Oc4ccccc4)C3)cc2)CC1` (centres undefined), the RP-LC retention time rises from 528 s to 664 s.

Going from `Cc1cc2[nH]c(C(=O)Nc3cc(F)c(F)c(F)c3)c(CN(C)C)c2s1` to `O=C(Nc1c(F)cc(F)cc1F)c1sc2ccccc2c1Cl`, the RP-LC retention time rises from 743 s to 1030 s.

Going from `O=C(NCc1cc(F)cc(F)c1)C1CCN(c2nnc(-c3ccccc3)o2)CC1` to `O=S(=O)(c1cc(-c2nnc(C3CC3)o2)co1)N1CCN(c2ccccc2F)CC1`, the RP-LC retention time rises from 844 s to 986 s.

Going from `O=C(CC1CCN(C(=O)Nc2ccc(Br)cc2F)CC1)N1CCCCC1` to `COC(=O)c1ccccc1NC(=O)N1CCN(c2nc3ccccc3n2C)CC1`, the RP-LC retention time falls from 835 s to 680 s.

Compared with `CCN(CC)CCOC(=O)c1cc(Cl)c(N)cc1OC`, `CC1(C)N=C(N)N=C(N)N1c1ccc(OCCCOc2ccccc2)c(Cl)c1` is higher in RP-LC retention time: 647 s for the first, 812 s for the second.

First: CCOC(=O)N1CCN(c2nc(F)c3c(c2F)S(=O)(=O)CCN3Cc2ccco2)CC1
Second: O=C(c1cccc(F)c1)N1CCN(C(=O)c2nnn3c2COC(c2ccc(Cl)cc2)C3)CC1 (centres undefined)
The RP-LC retention time of the first is higher: 962 s for the first, 931 s for the second.

First: Cc1nc2c(c(N3CCSCC3)n1)CCC2
Second: O=C(NC1CC1)C1CCN(c2nc3ccc(-c4ccsc4)nc3s2)CC1
The RP-LC retention time of the first is lower: 588 s for the first, 809 s for the second.

First: Cc1ccc(N2CCCS2(=O)=O)cc1NS(=O)(=O)CCc1ccccc1
Second: O=C(CCCc1ccccc1)Nc1cccn2c(C3CCC3)nnc12
The RP-LC retention time of the first is lower: 784 s for the first, 901 s for the second.

Going from `CCc1noc(NC(C)=O)c1-c1ccc(OC)c(S(=O)(=O)Nc2cccc(C#N)c2)c1` to `CCN1CCn2cc(S(=O)(=O)Nc3cc(C)cc(C)c3)cc2C1=O`, the RP-LC retention time falls from 738 s to 729 s.

First: O=C1c2cc(O)cc(O)c2OC[C@@H]1c1ccc(O)c(O)c1
Second: CC1CCC2(CC1)NC(=O)N(CC(=O)Nc1ccc3c(c1)OCO3)C2=O (centres undefined)
The RP-LC retention time of the first is higher: 834 s for the first, 708 s for the second.

First: CNC(=O)C1=CCN(C(=O)c2cc(C)cc(C)c2)CC1
Second: Cc1ccc(CNC(=O)C2(C)CCN(S(=O)(=O)c3ccc(C)c(C)c3)CC2)cc1
The RP-LC retention time of the first is lower: 705 s for the first, 1050 s for the second.

Compared with `CCN1c2cc(Cl)ccc2C(=O)NC12CCN(C(=O)NCc1cccc(F)c1)CC2`, `CCc1cc(=O)n(CC(=O)Nc2cccc(Cl)c2)c(N2CCOCC2)n1` is lower in RP-LC retention time: 856 s for the first, 788 s for the second.

First: CN1CC(=O)NC(c2ccccc2Br)C1=O (centres undefined)
Second: CN(CC1(C)CCOCC1)C(=O)c1ccccc1Br
The RP-LC retention time of the first is lower: 550 s for the first, 806 s for the second.

Compared with `Fc1cccc(-n2cc(-c3noc(-c4ccccc4F)n3)nn2)c1`, `COc1cccc(-c2noc(Cn3ccn4nc(-c5ccc(F)cc5)cc4c3=O)n2)c1OC` is lower in RP-LC retention time: 1050 s for the first, 1010 s for the second.

First: Cc1ccc(C)c(S(=O)(=O)N2CCC3(CCC(CN4CCN(C)CC4)O3)CC2)c1 (centres undefined)
Second: CCn1cc(S(=O)(=O)N2CCC3(CC2)CC(OCc2ccccc2)CCO3)cn1 (centres undefined)
The RP-LC retention time of the first is lower: 638 s for the first, 897 s for the second.

Going from `CC(C)N1CCn2cc(S(=O)(=O)Nc3ccccc3F)cc2C1=O` to `CNC(=O)C1CCCN(c2nc3ncn(CC(=O)Nc4ccccc4Cl)c(=O)c3s2)C1` (centres undefined), the RP-LC retention time falls from 730 s to 654 s.

Compared with `O[C@@H](c1cc(C(F)(F)F)nc2c(C(F)(F)F)cccc12)[C@@H]1CCCCN1`, `O=C(c1ccc(F)c(F)c1Nc1ccc(I)cc1F)N1CC(O)([C@H]2CCCCN2)C1` is lower in RP-LC retention time: 829 s for the first, 822 s for the second.

Going from `CCCn1cc(-c2ccncc2)cc1C(=O)NC1CC1` to `CCn1c(=O)c(N2CCC(NC(=O)NCc3ccccc3)CC2)nc2cccnc21`, the RP-LC retention time rises from 579 s to 826 s.

Compared with `COc1ccc(CNC(=O)c2nc3ccccn3c2-c2ccsc2)cc1`, `O=C(Nc1cc(-c2ccsc2)no1)c1ccc(Cl)cc1` is higher in RP-LC retention time: 810 s for the first, 1010 s for the second.

First: CCC(CC)NC(=O)c1c(OCC2CC2)cc(=O)n2c1CCCCC2
Second: CCN(CC)S(=O)(=O)c1ccc2c(c1)N(CC(=O)NC1CC1)C(=O)C1CCCCN21 (centres undefined)
The RP-LC retention time of the first is higher: 754 s for the first, 681 s for the second.

Going from `Cc1ccc(C)c(CN2CCC(F)(c3nc(-c4cnccn4)no3)CC2)c1` to `O=C(NC1CCCCC1)c1ccc(Nc2c(-c3ccccc3)nc3cnccn23)cc1`, the RP-LC retention time rises from 650 s to 802 s.

Compared with `CC1CCN(c2nn(CC(=O)Nc3ccc4c(c3)OCCO4)c(=O)c3ccccc23)CC1`, `O=C(Nc1ccc2c(c1)OCCO2)N1CC(c2nc(CCOCC3CC3)no2)C1` is lower in RP-LC retention time: 1060 s for the first, 754 s for the second.

First: Cc1ccccc1Nc1c(-c2ccccc2O)nc2ccc(Cl)cn12
Second: Cc1cc2nc(CSc3nnc(-c4ccc(Cl)cc4)o3)cc(=O)n2o1
The RP-LC retention time of the first is higher: 1040 s for the first, 786 s for the second.

Going from `CC1(c2noc(C3CC3)n2)CCN(C(=O)CCc2cc(Cl)no2)CC1` to `O=C(Cn1c(=O)c2cc(C3CC3)nn2c2ncccc21)NCc1ccccc1Cl`, the RP-LC retention time falls from 853 s to 766 s.

Going from `COc1cc2c3cc1Oc1c(OC)c(OC)cc4c1C(Cc1ccc(cc1)Oc1cc(ccc1O)CC3N(C)CC2)N(C)CC4` (centres undefined) to `CCN1CCN(c2ccc(NC(=O)c3ccc(Cl)s3)cn2)C1=O`, the RP-LC retention time rises from 579 s to 742 s.

`O=C(NCC(O)c1cccc2ccccc12)NC1CCCCC1` (centres undefined) gave an RP-LC retention time of 781 s.
